Patent US9951056B2, “Substituted nicotinamide inhibitors of BTK and their preparation and use in the treatment of cancer, inflammation and autoimmune disease” (BEIJING INNOCARE PHARMA TECH CO., LTD., priority 2013, dated 2018)

The compounds below were run against BTK (Homo sapiens (Human), UniProt Q06187) (assay: ADP-Glo kinase biochemical assay, IC50 determination of BTK inhibitors). Conditions: ADP-Glo, ATP 50 uM; values given as bins.
Experimental: Biological Properties: IC50 Determination of BTK Inhibitors in ADP-Glo Kinase Biochemical Assay
Those skilled in the art will appreciate that a variety of assay formats may be used to determine the activity of the compounds described herein.
ADP-Glo™ Kinase Assay (Cat. V9102, 10000 Tests), Components: • 1×50 ml ADP-Glo™ Reagent, • 1×100 ml Kinase Detection Buffer, • 1× Kinase Detection Substrate (Lyophilized), • 1×5 ml Ultra Pure ATP, 10 mM • 1×5 ml ADP, 10 mM
• Enzyme concentration: 8 ng/5 ul. • ATP concentration: 50 uM • Substrate (peptide) concentration: 0.2 mg/ml. • Reaction buffer composition: 40 mM Tris-HCl pH7.5, 10 mM MgCl2, 2 mM MnCl2, 0.1 mg/mL BSA, 0.05 mM DTT. • Test compound concentration: DMSO≤0.5%. Methods: Compound Dosage Gradient Solution Preparation: […]
1× and 2× assay buffer were made at first. BTK kinase was diluted with 1× assay buffer but substrate was diluted with 2× assay buffer. 1 ul of diluted compound was transferred into 384-well assay plate, and then 2.0 ul of enzyme solution was added, and spun at 2000 rpm for 1 min. This mixture was incubated at 24° C. for 30 mins. 2 ul of peptide substrate/ATP mixture was added into the assay plate to start the reaction. The mixture was mixed thoroughly and then the 384-well plate was spun and incubated at 24° C. for 60 mins. 5.0 ul of ADP-Glo Reagent was added to stop the kinase activity and deplete the ATP unconsumed, and the plate was mixed thoroughly and incubated at 24° C. for 40 min. Then, 10.0 ul of Kinase Detection reagent was added, and the plate was centrifuged and then kept at 24° C. for 30 min. The luminescence signal was read on Envision.
IC50 values of compounds were calculated from a 4-parameter fit using Equation (2): Y=Bottom+(TOP-Bottom)/(1+((C/X)^hillslope)) Equation (2)
In Equation 2, Y represents % inhibition, X is the log value of the test compound concentration. IC50 was the concentration of compound where half of maximal inhibition was achieved.
All data was analyzed with IDBS XLfit5 software (ID Business Solutions Ltd., UK).

Sequence of BTK (Q06187 whole entry): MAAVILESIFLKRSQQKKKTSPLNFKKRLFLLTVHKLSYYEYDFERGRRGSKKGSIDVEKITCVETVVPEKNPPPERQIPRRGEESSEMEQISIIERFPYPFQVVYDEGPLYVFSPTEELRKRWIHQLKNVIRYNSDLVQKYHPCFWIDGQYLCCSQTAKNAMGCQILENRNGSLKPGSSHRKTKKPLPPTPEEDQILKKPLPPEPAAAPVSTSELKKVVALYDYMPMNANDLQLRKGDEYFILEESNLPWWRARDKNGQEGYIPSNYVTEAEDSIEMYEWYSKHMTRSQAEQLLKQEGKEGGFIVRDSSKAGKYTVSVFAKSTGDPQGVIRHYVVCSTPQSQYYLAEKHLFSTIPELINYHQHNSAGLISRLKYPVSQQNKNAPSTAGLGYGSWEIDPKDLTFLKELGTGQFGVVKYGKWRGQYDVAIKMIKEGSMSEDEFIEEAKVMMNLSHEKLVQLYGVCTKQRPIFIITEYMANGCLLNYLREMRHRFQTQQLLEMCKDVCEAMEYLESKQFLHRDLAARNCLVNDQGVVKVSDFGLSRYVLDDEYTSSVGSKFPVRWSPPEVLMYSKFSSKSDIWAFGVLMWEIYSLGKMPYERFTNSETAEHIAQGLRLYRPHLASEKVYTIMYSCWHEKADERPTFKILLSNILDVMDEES

Question: For `C=CC(=O)N1CCC(n2cc(C(N)=O)c(-c3ccc(Oc4ccccc4)cc3)n2)CC1` [Example 12, 1-(1-acryloylpiperidin-4-yl)-3-(4-phenoxyphenyl)-1H-pyrazole-4-carboxamide], which IC50 is on record?
Answer: < 500 nM

Question: For `C=CC(=O)N1CCN(c2ccc(C(N)=O)c(-c3ccc(OC4CCCCC4)cc3)n2)CC1` [Example 28, 6-(4-acryloylpiperazin-1-yl)-2-(4-(cyclohexyloxy)phenyl)nicotinamide], which IC50 is on record?
Answer: < 500 nM

Question: With `C=CC(=O)N1CCN(c2ccc(C(N)=O)c(-c3ccc(Oc4ccc(C#N)cc4)cc3)n2)CC1` [Example 27, 6-(4-acryloylpiperazin-1-yl)-2-(4-(4-cyanophenoxy)phenyl)nicotinamide] as the compound, how does the IC50 read?
Answer: ≥ 1000 nM

Question: With `NC(=O)c1ccc(C2CCNCC2)nc1-c1ccc(Oc2ccccc2)cc1` [Example 2, 2-(4-phenoxyphenyl)-6-(piperidin-4-yl)nicotinamide] as the compound, how does the IC50 read?
Answer: ≥ 1000 nM

Question: `C=CC(=O)N1CCC(n2cc(C(N)=O)c(-c3ccc(Oc4ccccc4)cc3)n2)C1` (stereo not shown) [Example 13, 1-(1-acryloylpyrrolidin-3-yl)-3-(4-phenoxyphenyl)-1H-pyrazole-4-carboxamide] was tested. Which IC50 did it give?
Answer: < 500 nM

Question: Which IC50 does the source give for `CN(C)C/C=C/C(=O)N1CCN(c2ccc(C(N)=O)c(-c3ccc(Oc4ccccc4)cc3)n2)CC1` [Example 25, (E)-6-(4-(4-(dimethylamino)but-2-enoyl)piperazin-1-yl)-2-(4-phenoxyphenyl)nicotinamide] here?
Answer: < 500 nM

Question: `C=CC(=O)Nc1cccc(-c2ccc(C(N)=O)c(-c3ccc(Oc4ccccc4)cc3)n2)c1` [Example 1, 6-(3-acrylamidophenyl)-2-(4-phenoxyphenyl)nicotinamide] was tested. Which IC50 did it give?
Answer: < 500 nM

Question: `C=CC(=O)N1CCN(c2nc(-c3ccc(Oc4ccccc4)cc3)c(C(=O)NC)s2)CC1` [Example 47, 2-(4-acryloylpiperazin-1-yl)-N-methyl-4-(4-phenoxyphenyl)thiazole-5-carboxamide] was tested. Which IC50 did it give?
Answer: < 500 nM

Question: How did the IC50 turn out when `C=CC(=O)NC1CCN(c2ccc(C(N)=O)c(-c3ccc(Oc4ccccc4)cc3)n2)C1` (stereo not shown) [Example 10, 6-(3-acrylamidopyrrolidin-1-yl)-2-(4-phenoxyphenyl)nicotinamide] was run?
Answer: < 500 nM

Question: `C=CC(=O)N1CCC(c2ccc(C(N)=O)c(-c3ccc(C(O)c4ccccc4)cc3)n2)CC1` (stereo not shown) [Example 58, 6-(1-acryloylpiperidin-4-yl)-2-(4-(hydroxy(phenyl)methyl)phenyl)nicotinamide] was tested. Which IC50 did it give?
Answer: < 500 nM

Question: For `C=CC(=O)N1CCN(c2ccc(C(N)=O)c(-c3ccc(Oc4ccc(F)cc4)cc3)n2)CC1` [Example 37, 6-(4-acryloylpiperazin-1-yl)-2-(4-(4-fluorophenoxy)phenyl)nicotinamide], which IC50 is on record?
Answer: < 500 nM

Question: How did the IC50 turn out when `C=CC(=O)N1CCC(c2nc(-c3ccc(Oc4ccccc4)cc3)c(C(N)=O)o2)CC1` [Example 46, 2-(1-acryloylpiperidin-4-yl)-4-(4-phenoxyphenyl)oxazole-5-carboxamide] was run?
Answer: < 500 nM

Question: How did the IC50 turn out when `C=CC(=O)N1CCN(c2ccc(C(N)=O)c(-c3ccc(Cl)cc3)n2)CC1` [Example 33, 6-(4-acryloylpiperazin-1-yl)-2-(4-chlorophenyl)nicotinamide] was run?
Answer: ≥ 1000 nM

Question: How did the IC50 turn out when `NC(=O)c1cn(C2CNC2)nc1-c1ccc(Oc2ccccc2)cc1` [Example 14, 1-(azetidin-3-yl)-3-(4-phenoxyphenyl)-1H-pyrazole-4-carboxamide] was run?
Answer: ≥ 1000 nM

Question: Which IC50 does the source give for `C=CS(=O)(=O)N1CCC(c2ccc(C(N)=O)c(-c3ccc(Oc4ccccc4)cc3)n2)CC1` [Example 63, 2-(4-phenoxyphenyl)-6-(1-(vinylsulfonyl)piperidin-4-yl)nicotinamide] here?
Answer: < 500 nM

Question: How did the IC50 turn out when `C=CC(=O)N1CCN(c2ccc(C(N)=O)c(-c3ccc(C)c(OC)c3)n2)CC1` [Example 29, 6-(4-acryloylpiperazin-1-yl)-2-(3-methoxy-4-methylphenyl)nicotinamide] was run?
Answer: < 500 nM

Question: `C=CC(=O)N1CCC(c2nc(C(N)=O)c(-c3ccc(Oc4ccccc4)cc3)s2)C1` (stereo not shown) [Example 44, 2-(1-acryloylpyrrolidin-3-yl)-5-(4-phenoxyphenyl)thiazole-4-carboxamide] was tested. Which IC50 did it give?
Answer: < 500 nM

Question: For `C/C=C(\C#N)C(=O)N1CC(n2cc(C(N)=O)c(-c3ccc(Oc4ccccc4)cc3)n2)C1` [Example 59, (E)-1-(1-(2-cyanobut-2-enoyl)azetidin-3-yl)-3-(4-phenoxyphenyl)-1H-pyrazole-4-carboxamide], which IC50 is on record?
Answer: < 500 nM

Question: How did the IC50 turn out when `C=CC(=O)N1CCN(c2ccc(C(N)=O)c(-c3ccc(Oc4cccc(F)c4)cc3)n2)CC1` [Example 35, 6-(4-acryloylpiperazin-1-yl)-2-(4-(3-fluorophenoxy)phenyl)nicotinamide] was run?
Answer: < 500 nM

Question: `C=CC(=O)Nc1ccc(-n2cc(C(N)=O)c(-c3ccc(Oc4ccccc4)cc3)n2)cc1` [Example 16, 1-(4-acrylamidophenyl)-3-(4-phenoxyphenyl)-1H-pyrazole-4-carboxamide] was tested. Which IC50 did it give?
Answer: < 500 nM

Question: With `C=CC(=O)N1CCCC(c2nc(-c3ccc(Oc4ccccc4)cc3)c(C(N)=O)s2)C1` (stereo not shown) [Example 40, 2-(1-acryloylpiperidin-3-yl)-4-(4-phenoxyphenyl)thiazole-5-carboxamide] as the compound, how does the IC50 read?
Answer: < 500 nM

Question: For `C=CC(=O)N1CCC(c2ccc(C(N)=O)c(-c3ccc(Oc4ccccc4)cc3)c2)CC1` [Example 55, 5-(1-acryloylpiperidin-4-yl)-4′-phenoxybiphenyl-2-carboxamide], which IC50 is on record?
Answer: < 500 nM

Question: How did the IC50 turn out when `C=CC(=O)N1CCC(c2nc(-c3ccc(Oc4ccccc4)cc3)c(C(N)=O)s2)CC1` [Example 52, 2-(1-acryloylpiperidin-4-yl)-4-(4-phenoxyphenyl)thiazole-5-carboxamide] was run?
Answer: < 500 nM

Question: For `C=CC(=O)N1CCC(c2ccc(C#N)c(-c3ccc(Oc4ccccc4)cc3)n2)CC1` [Example 24, 6-(1-acryloylpiperidin-4-yl)-2-(4-phenoxyphenyl)pyridine-3-carbonitrile], which IC50 is on record?
Answer: 500 to 1000 nM

Question: `C=CC(=O)N1CCN(c2ccc(C(N)=O)c(-c3ccc(Oc4ccccc4F)cc3)n2)CC1` [Example 38, 6-(4-acryloylpiperazin-1-yl)-2-(4-(2-fluorophenoxy)phenyl)nicotinamide] was tested. Which IC50 did it give?
Answer: < 500 nM

Question: How did the IC50 turn out when `C=CC(=O)N1CCCC(c2nc(C(N)=O)c(-c3ccc(Oc4ccccc4)cc3)o2)C1` (stereo not shown) [Example 54, 2-(1-acryloylpiperidin-3-yl)-5-(4-phenoxyphenyl)oxazole-4-carboxamide] was run?
Answer: < 500 nM

Question: With `N#CCC(=O)N1CC(n2cc(C(N)=O)c(-c3ccc(Oc4ccccc4)cc3)n2)C1` [Example 50, 1-(1-(2-cyanoacetyl)azetidin-3-yl)-3-(4-phenoxyphenyl)-1H-pyrazole-4-carboxamide] as the compound, how does the IC50 read?
Answer: ≥ 1000 nM

Question: With `CN(C)C/C=C/C(=O)N1CCC(n2cc(C(N)=O)c(-c3ccc(Oc4ccccc4)cc3)n2)C1` (stereo not shown) [Example 34, 1-(1-(4-(dimethylamino)but-2-enoyl)pyrrolidin-3-yl)-3-(4-phenoxyphenyl)-1H-pyrazole-4-carboxamide] as the compound, how does the IC50 read?
Answer: < 500 nM

Question: `C=CC(=O)N1CC[C@@H](n2cc(C(N)=O)c(-c3ccc(Oc4ccccc4)cc3)n2)C1` [Example 20, (R)-1-(1-acryloylpyrrolidin-3-yl)-3-(4-phenoxyphenyl)-1H-pyrazole-4-carboxamide] was tested. Which IC50 did it give?
Answer: < 500 nM

Question: For `C=CC(=O)N1CCCC(n2cc(C(N)=O)c(-c3ccc(Oc4ccccc4)cc3)n2)C1` (stereo not shown) [Example 11, 1-(1-acryloylpiperidin-3-yl)-3-(4-phenoxyphenyl)-1H-pyrazole-4-carboxamide], which IC50 is on record?
Answer: < 500 nM

Question: For `C=CC(=O)N1CCC(c2nc(C(N)=O)c(-c3ccc(Oc4ccccc4)cc3)o2)C1` (stereo not shown) [Example 48, 2-(1-acryloylpyrrolidin-3-yl)-5-(4-phenoxyphenyl)oxazole-4-carboxamide], which IC50 is on record?
Answer: < 500 nM

Question: For `C=CC(=O)N1CCC(c2nc(-c3ccc(Oc4ccccc4)cc3)c(C(N)=O)s2)C1` (stereo not shown) [Example 41, 2-(1-acryloylpyrrolidin-3-yl)-4-(4-phenoxyphenyl)thiazole-5-carboxamide], which IC50 is on record?
Answer: < 500 nM

Question: How did the IC50 turn out when `C=CC(=O)Nc1ccc(-c2ccc(C(N)=O)c(-c3ccc(Oc4ccccc4)cc3)n2)cc1` [Example 7, 6-(4-acrylamidophenyl)-2-(4-phenoxyphenyl)nicotinamide] was run?
Answer: < 500 nM

Question: For `C=CC(=O)N1CC(n2cc(C(N)=O)c(-c3ccc(Oc4ccccc4)cc3)n2)C1` [Example 15, 1-(1-acryloylazetidin-3-yl)-3-(4-phenoxyphenyl)-1H-pyrazole-4-carboxamide], which IC50 is on record?
Answer: < 500 nM

Question: With `C=CC(=O)N1CCCC(c2ccc(C(N)=O)c(-c3ccc(Oc4ccccc4)cc3)n2)C1` (stereo not shown) [Example 8, 6-(1-acryloylpiperidin-3-yl)-2-(4-phenoxyphenyl)nicotnamide] as the compound, how does the IC50 read?
Answer: < 500 nM

Question: With `C=CC(=O)N1CCC(c2ccc(C(N)=O)c(-c3ccc(C(=O)Nc4ccccc4)cc3)n2)CC1` [Example 61, 6-(1-acryloylpiperidin-4-yl)-2-(4-(phenylcarbamoyl)phenyl)nicotinamide] as the compound, how does the IC50 read?
Answer: < 500 nM

Question: For `C=CC(=O)N1CCN(c2ccc(C(N)=O)c(-c3ccc(Oc4ccccc4)cc3F)n2)CC1` [Example 39, 6-(4-acryloylpiperazin-1-yl)-2-(2-fluoro-4-phenoxyphenyl)nicotinamide], which IC50 is on record?
Answer: < 500 nM
